Assay results as given in patent publication US20220193209A1, “COMPOSITIONS AND METHODS FOR REACTIVATING LATENT IMMUNODEFICIENCY VIRUS AND/OR TREATING IMMUNODEFICIENCY VIRUS INFECTION” (The J. David Gladstone institutes, a testamentary trust …, priority 2019, published 2022).
pIC50: −log10 of the molar value.

Assays:
[1] = biological target: Smyd2 (Homo sapiens, UniProt Q9NRG4); conditions: SMYD2, substrate competitive; cited from earlier work
[2] = system: latent HIV-1 provirus in J-Lat cells; assay: HIV-GFP reactivation in J-Lat cell lines (RT-qPCR, FACS); type: cell-based; conditions: for effect on TNFα-mediated HIV reactivation: with 10 ng/mL TNFα (24 h); for effect on AS1842856-induced HIV reactivation: with 1000 nM AS1842856 (72 h); for HIV-1 reactivation (HIV-GFP): ER stress inducers, 24, 48 and 72 h
Protocol: Total RNA from samples was extracted using the Direct-zol RNA kit (R2060; Zymogen). cDNA was generated using 500 ng for CD4^+ T cells or 1000 ng of total RNA for J-Lats with Superscript III Reverse transcription (18080-044; ThermoFisher) and oligo(dT) (18418-012; ThermoFisher). Quantitative RT-PCR was carried out using Maxima SYBR Green qPCR Master Mix (Thermo Scientific) on SDS 2.4 software (Applied Biosystems) in a total volume of 12 μL. The SYBR green qPCR reactions contained 5 μl of 2× Maxima SYBR green/Rox qPCR Master Mix (K0221; ThermoFisher), 5 μl of diluted cDNA, and 1 nmol of both forward and reverse primers. The reactions were run using the following conditions: 50° C. for 2 min and 95° C. for 10 min, followed by 40 cycles of 95° C. for 5 s and 62° C. for 30 s. See Table 1 below for a qRT-PCR primer list. […] Dissociation curve analysis was performed after the end of the PCR to confirm the presence of a single and specific product. All qPCRs were independently repeated at least three times, averaged and compared using standard deviation (±SD).
The J-Lat clonal cell lines are Jurkat cells that contain a stably integrated, latent HIV-1 (HXB) Δenv provirus with a GFP reporter gene in place of the nef gene (Jordan, A. et al. EMBO J. 22, 1868-1877 (2003)). In this system, reactivation from established latency can be monitored through GFP expression.
HIV-GFP mRNA reactivation was assessed by RT-qPCR and normalized to RPL13A mRNA. Data represent average SD of three independent experiments. p-value relative to the control at each time point. FIG. 3, Panel B, depicts cell viability assessed by flow cytometry at 72 h of the same experiment as in A. Cell viability was measured by gating on both the live population at the forward scatter (FSC) and side scatter (SSC) plot and then the viable cells after staining with the viability dye. […] HIV-GFP reactivation (bars) and cell viability (dots) were analyzed by FACS. HIV-GFP reactivation is reported as a percentage of GFP-expressing cells (% GFP+ cells). Data represent average f SD of at least three independent experiments. FIG. 3, Panel D, depicts the same experiments as in FIG. 3, Panel C, but performed in different J-Lat cell lines 5A8, 6.3, 11.1 and 15.4. Data represent average f SD of at least three independent experiments. 10 ng/mL TNFα was used as control. […] Calculation of synergy for drug combinations using the Bliss independence model applied to the HIV-GFP reactivation measured as a percentage of GFP-expressing cells (% GFP+ cells).
Chromatin was prepared from J-Lat A2 and 5A8 cells, in which the LTR was stimulated by 1000 nM AS1842856 treatment, TNFα or which were left untreated/DMSO. […] HIV-GFP reactivation was analyzed by FACS and relativized to the control condition. […] Data represent average SD of 3-6 independent experiments. […] HIV-GFP reactivation was analyzed by FACS. […] HIV-GFP reactivation and cell viability were analyzed by FACS. Data were mean±SD of three independent experiments.

[3] = system: J-Lat cells; assay: Cell viability of J-Lat cells by flow cytometry; type: cell-based; conditions: J-Lat
Protocol: FIG. 3, Panel A, depicts results of treatment of a J-Lat cell line 5A8 with increasing concentrations (1-10000 nM) of AS1842856 for 24, 48 and 72 h. HIV-GFP mRNA reactivation was assessed by RT-qPCR and normalized to RPL13A mRNA. Data represent average SD of three independent experiments. p-value relative to the control at each time point. FIG. 3, Panel B, depicts cell viability assessed by flow cytometry at 72 h of the same experiment as in A. Cell viability was measured by gating on both the live population at the forward scatter (FSC) and side scatter (SSC) plot and then the viable cells after staining with the viability dye. FIG. 3, Panel C, depicts results of treatment of J-Lat cell lines A2 and A72 with increasing concentrations of AS1842856 for 24, 48 and 72 h. HIV-GFP reactivation (bars) and cell viability (dots) were analyzed by FACS. HIV-GFP reactivation is reported as a percentage of GFP-expressing cells (% GFP+ cells). Data represent average f SD of at least three independent experiments. FIG. 3, Panel D, depicts the same experiments as in FIG. 3, Panel C, but performed in different J-Lat cell lines 5A8, 6.3, 11.1 and 15.4. Data represent average f SD of at least three independent experiments. 10 ng/mL TNFα was used as control. FIG. 3 Panel E depicts results of treatment of J-Lat cell lines 5A8, 6.3, 11.1 and 15.4 for 72 h with increasing concentrations of both AS1842856 (Y-axis) and TNFα (X-axis) alone or in combination and analyzed by FACS. Calculation of synergy for drug combinations using the Bliss independence model applied to the HIV-GFP reactivation measured as a percentage of GFP-expressing cells (% GFP+ cells).
FIG. 10, Panels A-F depict results of a J-Lat cell line 5A8 treated with different concentrations of inhibitors. FIG. 10, Panel A, depicts results for a J-Lat cell line A58 that was treated with increasing concentrations of A-92 (GCN2 inhibitor) in combination with 1000 nM AS1842856 (72 h) or 10 ng/mL TNFα (24 h). HIV-GFP reactivation was analyzed by FACS and relativized to the control condition. Histogram plots of percent live cells for each drug treatment are shown. FIG. 10, Panel B, depicts the same experiment as in FIG. 10, Panel A, but cells were treated with increasing concentrations of PKR inhibitor (PKRi). Histogram plots representing viability are also shown. Data are represented by mean±SD of three different […]. […] FIG. 10, Panel D, depicts a J-Lat cell line A58 that was treated with increasing concentrations of Ionomycin (0.01, 0.1, 0.5, 1 μM) for 24, 48 and 72 hr. HIV-GFP reactivation and cell viability were analyzed by FACS. FIG. 10, Panel E, depicts a J-Lat cell line 5A8 that was treated for 72 h with increasing concentrations of both Fenretinide (Y-axis) and Ionomycin (X-axis) alone or in combination and analyzed by FACS. HIV-GFP reactivation is reported as a percentage of GFP-expressing cells (% GFP+ cells). FIG. 10, Panel F, depicts a J-Lat cell line 5A8 that was also treated for 72 h with increasing concentrations of both Thapsigargin (Y-axis) and Cyclosporin A (X-axis) alone or in combination and analyzed by FACS. HIV-GFP reactivation is again reported as a percentage of GFP-expressing cells (% GFP+ cells).

[4] = system: HIV LTR; assay: Chromatin immunoprecipitation (ChIP) at the HIV LTR in J-Lat cells; type: cell-based, HIV-1
Protocol: J-Lat A2 and A72 cells were treated with TNFα (10 ng/ml) for 18 h. Cells were fixed with 1% formaldehyde (v/v) in fixation buffer (1 mM EDTA, 0.5 mM EGTA, 50 mM Hepes, pH 8.0, 100 mM NaCl), and fixation was stopped after 10 min by addition of glycine to 125 mM. The cell membrane was lysed for 15 min on ice (5 mM Pipes, pH 8.0, 85 mM KCl, 0.5% NP40, protease inhibitors). After washing with nuclear swell buffer (25 mM HEPES, pH 7.5, 4 mM KCl, 1 Mm DTT, 0.5% NP-40, 0.5 mM PMSF) and micrococcal nuclease (MNase) digestion buffer (20 mM Tris pH 7.5, 2.5 mM CaCl2), 5 mM NaCl, 1 mM DTT, 0.5% NP-40), the pellet was resuspended in MNase buffer (15 mM Tris-HCl, pH 7.5, 5 mM MgCl2, 1 mM CaCl2), and 25 mM NaCl). Subsequently, samples were incubated with MNase (New England Biolabs) for 10 min at RT. The reaction was quenched with 0.5 M EDTA and incubated on ice for 5 min. Cells were lysed (1% SDS, 10 mM EDTA, 50 mM Tris-HCl, pH 8.1, protease inhibitors), and chromatin DNA was sheared to 200-1000-bp average size through sonication (Ultrasonic Processor CP-130, Cole Parmer). Cellular debris was pelleted, and the supernatant was recovered. Protein A/G Sepharose beads were blocked with single-stranded salmon sperm DNA and BSA, washed and resuspended in immunoprecipitation buffer. Blocked protein A/G Sepharose beads were added to the digested chromatin fractions and rotated at 4° C. for 2 h to preclear chromatin. Lysates were incubated overnight at 4° C. with 5 μg of FOXO1, RelA, histone H4, H4K20me1, H4K20me2, H4K20me3 antibodies, or IgG control. After incubation with protein A/G agarose beads for 2 h and washing three times with low salt buffer (0.1% SDS, 1% Triton X-100, 2 mM EDTA, 20 mM Tris-HCl, pH 8.1, 150 mM NaCl), one time with high salt buffer (0.1% SDS, 1% Triton X-100, 2 mM EDTA, 20 mM Tris-HCl, pH 8.1, 500 mM NaCl) and twice with TE-buffer (1 mM EDTA, 10 mM Tris-HCl, pH 8.1), chromatin was eluted and recovered with Agencourt AMPure XP beads (Beckman Coulter). Bound chromatin and input DNA were treated with RNase H (New England Biolabs) and Proteinase K (Sigma-Aldrich) at 37° C. for 30 min. Immunoprecipitated chromatin was quantified by real-time PCR using the Maxima SYBR Green qPCR Master Mix (Thermo Scientific) and the ABI 7700 Sequence Detection System (Applied Biosystems). The SDS 2.4 software (Applied Biosystems) was used for analysis. The specificity of each PCR reaction was confirmed by melting curve analysis using the Dissociation Curve software (Applied Biosystems). All chromatin immunoprecipitations and qPCRs were repeated at least three times, and representative results were shown.
Because ATF4 can be recruited to the HIV LTR (Jiang, G. et al. Downloaded from. MBio 8, 1518-1534 (2018)) and the related human T-cell leukemia virus type 1 (HTLV-1) Reddy, T. et al. Oncogene 14, 2785-2792 (1997)), chromatin immunoprecipitation (ChIP) experiments were performed to test whether ATF4 binds the HIV LTR in response to FOXO1 inhibition. While low levels of ATF4 bound HIV LTR chromatin in untreated J-Lat cells, its recruitment was 3-fold enriched after AS1842856 treatment (FIG. 9, Panel A). […] The nuclear factor of activated T cells (NFAT) can occupy the NF-κB binding sites in the HIV LTR, and is activated through calcium mobilization after T cell activation rather than protein kinase C activation as for NF-κB. […]

Smyd2, sequence (Q9NRG4 whole entry, species assumed): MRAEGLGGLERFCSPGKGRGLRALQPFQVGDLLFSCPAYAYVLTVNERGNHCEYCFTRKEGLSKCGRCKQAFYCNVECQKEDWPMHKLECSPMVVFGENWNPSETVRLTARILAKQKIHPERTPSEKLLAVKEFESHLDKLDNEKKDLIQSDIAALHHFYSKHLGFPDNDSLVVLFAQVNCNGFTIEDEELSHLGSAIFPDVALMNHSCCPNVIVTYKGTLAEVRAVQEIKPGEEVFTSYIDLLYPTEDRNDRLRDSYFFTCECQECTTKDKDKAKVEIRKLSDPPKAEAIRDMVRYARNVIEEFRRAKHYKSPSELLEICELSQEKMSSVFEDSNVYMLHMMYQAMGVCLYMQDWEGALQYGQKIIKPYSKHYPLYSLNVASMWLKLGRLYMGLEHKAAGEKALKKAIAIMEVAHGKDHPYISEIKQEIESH

## N#Cc1cc(C(=O)NCCCN2CCCC2)cc(-c2ccccc2N2CCN(CCc3c[nH]c4ccccc34)CC2)c1 [AZ391]
[1]
  pIC50: 7.21

## Cc1cccc(CC(=O)N2CCc3c2ccc(-c2cn(C)c4ncnc(N)c24)c3F)n1 [PERK inhibitor]
[2]; J-Lat
  effect on TNFα-mediated HIV reactivation: not affected
  effect on AS1842856-induced HIV reactivation: reduced
[2]; J-Lat, with 1000 nM AS1842856
  suppression of AS1842856-mediated HIV reactivation: ~50%

## C/C=C(/C)C(=O)O[C@H]1C(C)=C2[C@H]([C@@H]1OC(=O)CCCCCCC)[C@@](C)(OC(C)=O)C[C@H](OC(=O)CCC)[C@@]1(O)[C@H]2OC(=O)[C@@]1(C)O [thapsigargin]
[2]; J-Lat
  HIV-1 reactivation (HIV-GFP): HIV-1 reactivation
[3]; ER stress inducers
  cellular toxicity: dose-dependent levels of cellular toxicity

## TNFα
[2]; J-Lat 5A8, GFP mRNA
  time of maximal activation: 24 h
[2]; four J-Lat clonal cell lines, as early as 24 hours
  GFP expression: induced GFP expression
[4]
  RelA recruitment to the HIV LTR: significantly enriched

## C[C@H]1CCC/C=C/[C@@H]2C[C@H](O)C[C@H]2[C@H](O)/C=C/C(=O)O1 [Brefeldin A]
[2]; J-Lat
  HIV-1 reactivation (HIV-GFP): HIV-1 reactivation
[3]; ER stress inducers
  cellular toxicity: dose-dependent levels of cellular toxicity

## O=C1Nc2ccc3ncsc3c2/C1=C/c1cnc[nH]1 [PKR inhibitor]
[2]; J-Lat
  effect on TNFα-mediated HIV reactivation: diminished
  effect on AS1842856-induced HIV reactivation: not

## CC1=C(/C=C/C(C)=C/C=C/C(C)=C/C(=O)Nc2ccc(O)cc2)C(C)(C)CCC1 [fenretinide]
[2]; J-Lat
  HIV-1 reactivation (HIV-GFP): best reactivation
[3]; ER stress inducers
  cellular toxicity: dose-dependent levels of cellular toxicity
[3]; fenretinide 0.5 μM, alone or with ionomycin
  cellular toxicity: nontoxic
